# What was measured:
# [1] = test system: MCF-7 cells; test: Breast Cancer Cell Viability Assay (MCF7 Viability Assay); type: cell-based; conditions: 5 days' compound exposure, CellTiter-Glo; for IC50: Homo sapiens, MCF7, 120 h
# Experimental: MCF-7 cells were adjusted to a concentration of 20,000 cells per mL in RPMI containing 10% FBS and 20 mM HEPES. 16 microliters of the cell suspension (320 cells) was added to each well of a 384 well plate, and the cells were incubated overnight to allow the cells to adhere. The following day an eleven point, serial semilog dilution of each compound was added to the cells in 16 μL at a final concentration ranging from 0.3-0.000003 μM. After 5 days' compound exposure, 16 μL of CellTiter-GLo (Promega, Madison Wis.) was added to the cells the relative luminescence units (RLUs) of each well was determined. CellTiter-Glo added to 32 μL of medium without cells was used to obtain a background value. The Percent viability of each sample was determined as follows: (RLU sample-RLU background/RLU untreated cells-RLU background)×100=% viability.
# [2] = target: T1, ER-α (Homo sapiens, UniProt P03372); test: ER-α in Cell Western Assay (SP1); type: cell-based; conditions: MCF-7 cells, SP1 rabbit monoclonal Ab, 4 or 24 hr post compound addition, read-out: ER In-Cell Western Assay (SP1); for Emax: MCF7, Max Response; for DC50: IC50
# T1 construct: endogenous in cells; host or cells: MCF-7
# T1 sequence (P03372 1-595): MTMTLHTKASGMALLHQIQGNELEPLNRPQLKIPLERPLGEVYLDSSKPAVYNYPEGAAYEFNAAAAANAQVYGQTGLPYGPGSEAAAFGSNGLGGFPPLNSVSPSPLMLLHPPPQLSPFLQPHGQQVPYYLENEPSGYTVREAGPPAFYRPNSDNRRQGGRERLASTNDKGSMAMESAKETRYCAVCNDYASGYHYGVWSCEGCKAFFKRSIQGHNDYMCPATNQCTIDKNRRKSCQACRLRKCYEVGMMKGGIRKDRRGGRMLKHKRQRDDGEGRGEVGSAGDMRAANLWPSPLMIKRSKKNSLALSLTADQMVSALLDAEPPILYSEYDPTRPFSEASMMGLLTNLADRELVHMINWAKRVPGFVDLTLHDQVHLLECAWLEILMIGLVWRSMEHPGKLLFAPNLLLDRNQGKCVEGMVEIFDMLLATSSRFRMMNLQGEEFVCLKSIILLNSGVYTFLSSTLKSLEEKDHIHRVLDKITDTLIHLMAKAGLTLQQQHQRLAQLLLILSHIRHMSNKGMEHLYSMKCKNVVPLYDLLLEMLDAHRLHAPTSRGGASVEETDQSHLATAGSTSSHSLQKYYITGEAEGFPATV
# Experimental: MCF-7 cells were adjusted to a concentration of 200,000 cells per mL in RPMI containing 10% charcoal-stripped FBS and 20 mM HEPES. 16 microliters of the cell suspension (3200 cells) was added to each well of a poly-D-lysine 384 well plate, and the cells were incubated overnight to allow the cells to adhere. The following day an eleven point, serial semilog dilution of each compound was added to the cells in 16 μL at a final concentration ranging from 0.3-0.000003 μM. At 4 or 24 hr post compound addition, the cells were fixed (10% formalin in PBS) for 20 minutes. Cells were permeabalized in PBS 0.1% Triton and blocked with LICOR blocking buffer (50 μl/well, 90′). The wells were then incubated overnight at 4° C. with SP1 rabbit monoclonal Ab (Thermo Scientific) diluted 1:1000 in LICOR blocking buffer/0.1% Tween-20. Wells which were treated with blocking buffer with Tween but no antibody were used as a background control. Wells were washed with 0.1% Tween-20/PBS and then incubated in goat anti-rabbit IRDye™ 800CW (LICOR Inc.; 1:1000) and DRAQ5 DNA dye (1:2000 for 2 mM stock) diluted in LICOR blocking buffer containing 0.1% Tween-20 and 0.01% SDS for 60 minutes. Cells were washed (50 μl/well, 5′ each) in 0.1% Tween-20/PBS. Plates were scanned on a LICOR Odyssey infrared imaging system. Integrated intensities in the 800 nm channel and 700 nm channel were measured to determine levels of ER and DNA respectively. Percent ER levels were determined as follows: (Integrated intensity 800 nm sample/integrated intensity 700 nm sample)/(Integrated intensity 800 nm untreated cells/integrated intensity 700 nm untreated cells)×100=% ER levels.
IC50 [1] [nM],Emax [2] [%],DC50 [2] [nM],Structure (SMILES),MCF7 Viability Assay Max Response [1]
≤ 1,60 to 85,≤ 1,"CC1=C(c2cccc(O)c2C)C(c2ccc(OC[C@H](C)N3CC[C@@H](C)C3)cc2)Oc2ccc(O)cc21 (stereo partly drawn) [Example 40, 3-(3-Hydroxy-2-methylphenyl)-4-methyl-2-(4-((S)-2-((R)-3-methylpyrrolidin-1-yl)propoxy)phenyl)-2H-chromen-6-ol]",++ (++ = a single % value ≧50%)
≤ 1,60 to 85,≤ 1,"CC1=C(c2ccc(O)cc2C)C(c2ccc(OC[C@H](C)N3CC[C@@H](C)C3)cc2)Oc2ccc(O)cc21 (stereo partly drawn) [Example 41, 3-(4-Hydroxy-2-methylphenyl)-4-methyl-2-(4-((S)-2-((R)-3-methylpyrrolidin-1-yl)propoxy)phenyl)-2H-chromen-6-ol]",++ (++ = a single % value ≧50%)
≤ 1,≥ 85,≤ 1,"CC1=C(c2ccc(O)cc2F)C(c2ccc(OC[C@H](C)N3CC[C@@H](C)C3)cc2)Oc2ccc(O)cc21 (stereo partly drawn) [Example 45, 3-(2-Fluoro-4-hydroxyphenyl)-4-methyl-2-(4-((S)-2-((R)-3-methylpyrrolidin-1-yl)propoxy)phenyl)-2H-chromen-6-ol]",++ (++ = a single % value ≧50%)
≤ 1,≥ 85,≤ 1,"CC1=C(c2cc(F)c(O)c(F)c2)C(c2ccc(OC[C@H](C)N3CC[C@@H](C)C3)cc2)Oc2ccc(O)cc21 (stereo partly drawn) [Example 47, 3-(3,5-Difluoro-4-hydroxyphenyl)-4-methyl-2-(4-((S)-2-((R)-3-methylpyrrolidin-1-yl)propoxy)phenyl)-2H-chromen-6-ol]",++ (++ = a single % value ≧50%)
> 1,≥ 85,≤ 1,"CC1=C(c2ccc(F)c(O)c2F)C(c2ccc(OC[C@H](C)N3CC[C@@H](C)C3)cc2)Oc2ccc(O)cc21 (stereo partly drawn) [Example 48, 3-(2,4-Difluoro-3-hydroxyphenyl)-4-methyl-2-(4-((S)-2-((R)-3-methylpyrrolidin-1-yl)propoxy)phenyl)-2H-chromen-6-ol]",++ (++ = a single % value ≧50%)
≤ 1,≥ 85,≤ 1,"CC1=C(c2cc(O)c(F)c(F)c2)C(c2ccc(OC[C@H](C)N3CC[C@@H](C)C3)cc2)Oc2ccc(O)cc21 (stereo partly drawn) [Example 49, 3-(3,4-Difluoro-5-hydroxyphenyl)-4-methyl-2-(4-((S)-2-((R)-3-methylpyrrolidin-1-yl)propoxy)phenyl)-2H-chromen-6-ol]",++ (++ = a single % value ≧50%)
≤ 1,60 to 85,≤ 1,"CC1=C(c2ccc(F)cc2Cl)C(c2ccc(OC[C@H](C)N3CC[C@@H](C)C3)cc2)Oc2ccc(O)cc21 (stereo partly drawn) [Example 50, 3-(2-Chloro-4-fluorophenyl)-4-methyl-2-(4-((S)-2-((R)-3-methylpyrrolidin-1-yl)propoxy)phenyl)-2H-chromen-6-ol]",++ (++ = a single % value ≧50%)
≤ 1,60 to 85,≤ 1,"CC1=C(c2ccc(F)cc2F)C(c2ccc(OC[C@H](C)N3CC[C@@H](C)C3)cc2)Oc2ccc(O)cc21 (stereo partly drawn) [Example 52, 3-(2,4-Difluorophenyl)-4-methyl-2-(4-((S)-2-((R)-3-methylpyrrolidin-1-yl)propoxy)phenyl)-2H-chromen-6-ol]",++ (++ = a single % value ≧50%)
≤ 1,≥ 85,≤ 1,"CC1=C(c2cccc(O)c2F)C(c2ccc(OC[C@H](C)N3CC[C@@H](C)C3)cc2)Oc2ccc(O)cc21 (stereo partly drawn) [Example 60, 3-(2-Fluoro-3-hydroxyphenyl)-4-methyl-2-(4-((S)-2-((R)-3-methylpyrrolidin-1-yl)propoxy)phenyl)-2H-chromen-6-ol]",++ (++ = a single % value ≧50%)

# The remaining lines, values behind:
Structure (SMILES),IC50 [1] [nM],Emax [2] [%],DC50 [2] [nM],MCF7 Viability Assay Max Response [1]
"CC1=C(c2ccc(F)cc2)[C@H](c2ccc(OC[C@H](C)N3CC[C@@H](C)C3)cc2)Oc2ccc(O)cc21 (single isomer, unassigned) [Example 30a]",≤ 1,60 to 85,≤ 1,++ (++ = a single % value ≧50%)
"CC1=C(c2ccc(F)cc2)[C@@H](c2ccc(OC[C@H](C)N3CC[C@@H](C)C3)cc2)Oc2ccc(O)cc21 (single isomer, unassigned) [Example 30b]",> 1,60 to 85,> 1,++ (++ = a single % value ≧50%)
"CC1=C(c2ccc(O)c(C)c2)C(c2ccc(OC[C@H](C)N3CC[C@@H](C)C3)cc2)Oc2ccc(O)cc21 (stereo partly drawn) [Example 42, 3-(4-Hydroxy-3-methylphenyl)-4-methyl-2-(4-((S)-2-((R)-3-methylpyrrolidin-1-yl)propoxy)phenyl)-2H-chromen-6-ol]",≤ 1,≥ 85,≤ 1,++ (++ = a single % value ≧50%)
"CC1=C(c2cc(O)cc(F)c2)C(c2ccc(OC[C@H](C)N3CC[C@@H](C)C3)cc2)Oc2ccc(O)cc21 (stereo partly drawn) [Example 43, 3-(3-Fluoro-5-hydroxyphenyl)-4-methyl-2-(4-((S)-2-((R)-3-methylpyrrolidin-1-yl)propoxy)phenyl)-2H-chromen-6-ol]",≤ 1,≥ 85,≤ 1,++ (++ = a single % value ≧50%)
"CC1=C(c2ccc(Cl)cc2)C(c2ccc(OC[C@H](C)N3CC[C@@H](C)C3)cc2)Oc2ccc(O)cc21 (stereo partly drawn) [Example 44, 3-(4-Chlorophenyl)-4-methyl-2-(4-((S)-2-((R)-3-methylpyrrolidin-1-yl)propoxy)phenyl)-2H-chromen-6-ol]",> 1,60 to 85,> 1,++ (++ = a single % value ≧50%)
"CC1=C(c2ccc(F)c(F)c2)C(c2ccc(OC[C@H](C)N3CC[C@@H](C)C3)cc2)Oc2ccc(O)cc21 (stereo partly drawn) [Example 46, 3-(3,4-Difluorophenyl)-4-methyl-2-(4-((S)-2-((R)-3-methylpyrrolidin-1-yl)propoxy)phenyl)-2H-chromen-6-ol]",> 1,60 to 85,> 1,++ (++ = a single % value ≧50%)
"CC1=C(c2cccc(O)c2)C(c2ccc(OC[C@H](C)n3cnc(C)c3)cc2)Oc2ccc(O)cc21 (stereo partly drawn) [Example 51, 3-(3-Hydroxyphenyl)-4-methyl-2-(4-((S)-2-(4-methyl-1H-imidazol-1-yl)propoxy)phenyl)-2H-chromen-6-ol]",≤ 1,60 to 85,≤ 1,++ (++ = a single % value ≧50%)
"CC1=C(c2cccc(O)c2)C(c2ccc(OC[C@H](C)N3CC[C@@H](C)C3)cc2)Oc2ccc(O)c(F)c21 (stereo partly drawn) [Example 61, 5-Fluoro-3-(3-hydroxyphenyl)-4-methyl-2-(4-((S)-2-((R)-3-methylpyrrolidin-1-yl)propoxy)phenyl)-2H-chromen-6-ol]",≤ 1,≥ 85,≤ 1,++ (++ = a single % value ≧50%)
